Test results from patent publication US9980931B2, “Use of glycyl glutamine against depression” (priority 2013, dated 2018).
Like-named read-outs stand apart in the source and are kept apart here. Peptide text beside a SMILES is read from it.

Tests used:
[1] = test system: conditioned place preference (nicotine); details: Goktalay et al., 2006; cited from earlier work
[2] = test system: brainstem of rodents; details: applied on the brainstem of rodents iontophoretically (Parish et al., 1983); cited from earlier work
[3] = test system: conditioned place preference caused by morphine; details: Cavun et al., 2005; cited from earlier work
[4] = administered peripherally; cited from earlier work
[5] = test system: serotonin output at the nucleus accumbency section of the brain; assay: Brain micro-dialysis, serotonin output after intracerebroventricular injection; type: in vivo, rats; details: 100 nmol single intracerebroventricular dose; 2 hours monitoring; p<0.001; FIGS. 4 and 5
Method: The source of the antidepressant effects of Gly-Gln, which is mentioned in the figure descriptions above, have been analyzed and shown in FIGS. 4 and 5. In FIGS. 4 and 5; the effect of Gly-Gin on the serotonin output at the nucleus accumbency section of the brain upon intracerebroventricular Gly-Gln injection can be seen. […] An increase in serotonin outputs can be observed in all time intervals throughout 2 hours of monitoring period following the Gly-Gln injection; however, no serotonin output could be observed from the rodents in the control group who had been administered saline injections by the same way. Serotonin, which is structurally a monoamine neurotransmitter, is a hormone, which makes people feel happy, energetic and lively. When, the subject matter hormone serotonin is deficient in people, they feel depressive, tired and boring. […] Furthermore, the word “Saline” indicated in FIGS. 4 and 5 means salty water. It is used for comparing with the tested medication by administering on the control group.

[6] = test system: use of alcohol; details: administered centrally (Resch et al., 2005; Simpson et al., 1998); cited from earlier work
[7] = test system: thermogenesis caused by alpha-MSH; details: Resch and Millington, 1993; cited from earlier work
[8] = test system: myocardial damage; details: Zhang et al., 2013; cited from earlier work
[9] = test system: cardiorespiratory depression; details: Unal et al., 1997; cited from earlier work
[10] = test system: GABA levels in the brain; assay: GABA levels in the brain after administration; type: in vivo; details: Gly-Gln administration; data from our laboratory
Description: This innovation is related with the use of glycyl-glutamine in the treatment and/or prophylaxis of depression disorder and/or anxiety, which meets all above-mentioned requirements, eliminates all disadvantages and provides some advantages. The purpose of the current invention is to use Glycyl-Glutamine (Gly-Gln) in the treatment and/or prophylaxis of depression and/or anxiety via its effects in the brain other than its metabolic products' (glycine and glutamine) separate effects. […] Glutamine exerts antidepressant effects by increasing gamma-aminobutyric acid (GABA) in the brain however Gly-Gln generates antidepressant effects by increasing serotonin levels in the brain. […] Although glutamine administration increases GABA levels in the brain.

[11] = test system: GABA levels in the brain; details: glutamine administration; cited from earlier work

NCC(=O)N[C@@H](CCC(N)=O)C(=O)O [Gly-Gln, glycyl-glutamine] (H-Gly-Gln-OH)
conditioned place preference and deprivation syndrome (nicotine) [1]: prevented
effect on cell ignition [2]: inhibiting effect
addition and tolerance developments (morphine) [3]: inhibited
conditioned place preference caused by morphine [3]: prevented
deprivation symptoms (morphine) [3]: decreased
crossing of the blood-brain barrier [4]: could not across
serotonin output at the nucleus accumbency section of the brain [5]: extremely increased
use of alcohol [6]: decreased
thermogenesis caused by alpha-MSH [7]: antagonized
effects on myocardial damage after severe burn injury [8]: beneficial effects
cardiorespiratory depression caused by beta-endorphin [9]: eliminated
cardiorespiratory depression caused by beta-endorphin and morphine [9]: eliminated
GABA levels in the brain [10]: does not alter

NC(=O)CC[C@@H]1NC(=O)CNC1=O [cyclo Gly-Gln]
crossing of the blood-brain barrier [4]: could be across
cardiorespiratory depression caused by beta-endorphin and morphine [9]: eliminated

NC(=O)CC[C@H](N)C(=O)O [glutamine]
GABA levels in the brain [11]: increases

beta-endorphin (YGGFMTSEKSQTPLVTLFKNAIIKNAYKKGE; Beta-endorphin; UniProt P01189 237-267, looked up) [endogenous peptide from which Gly-Gln is produced, reference compound]
use of alcohol [6]: increased
